Data from US10806702B2, “Bis-polymer lipid-peptide conjugates and nanoparticles thereof” (THE REGENTS OF THE UNIVERSITY OF CALIFORNIA, priority 2012, dated 2020).

Legend:
NDL tumors [1] = assay: Intravenous DOX-loaded micelles: organ fluorescence in NDL tumor mice; format: in vivo, FVB mice; details: 24 and 72 h
[2] = CED, 20 μl, DOX 0.2 mg/ml, a week after infusion
NDL tumors [3] = details: stated as known; cited from earlier work
[4] = Drug loading of micelles (thin film hydration, HPLC); format: physicochemical; details: drug encapsulated in dC18-1coi(P2K)-P750 micelles
Protocol: DOX, paclitaxel and rapamycin loaded micelles were prepared using identical procedures by thin film hydration method. dC18-1coi(P2K)-P750 and the different drugs were dissolved in methanol in a glass vial and the solvent was evaporated in vacuum oven for 3 hours. The dried film containing the conjugate and drug was rehydrated with 25 mM phosphate buffer, pH 7.4, and the solution was stirred for 16 hours to allow the assembly into drug loaded 3-helix micelles. Free drug was removed by centrifugation followed by spin ultrafiltration (Amicon centrifugal filter units, MW cutoff: 3000 Da). The concentrate obtained was washed with water and lyophilized to obtain drug loaded micelles. The drug loaded micelles were dissolved in methanol and loading was determined by reverse phase HPLC monitoring the absorbance of drugs at 280 nm. For all characterization experiments of drug loaded micelles, lyophilized powder of micellar-drugs was dissolved in 25 mM phosphate buffer, pH 7.4, and the solution was heated in water bath at 60° C. for an hour to break potential aggregates to obtain a clear solution.
The solvent was evaporated in vacuum oven for 3 hours. […] The salts and free drug were removed by centrifugation followed by spin ultrafiltration (Amicon centrifugal filter units, MW cutoff: 3000 Da). […]
Drug loading content was determined by HPLC. […]

Compound | fluorescence in different organs after free DOX injections (NDL tumors [1]) | brain tissue toxicity (H&E staining) [2] | clearance time from blood circulation (NDL tumors [3]) | Loading (wt %) [4]
COc1cccc2c1C(=O)c1c(O)c3c(c(O)c1C2=O)C[C@@](O)(C(=O)CO)C[C@@H]3O[C@H]1C[C@H](N)[C@H](O)[C@H](C)O1 [Doxorubicin, doxorubicin] | cannot be detected | significant tissue damage | tens of minutes | 7.6 ± 0.4 wt %
CC(=O)O[C@H]1C(=O)[C@@]2(C)[C@H]([C@H](OC(=O)c3ccccc3)[C@]3(O)C[C@H](OC(=O)[C@H](O)[C@@H](NC(=O)c4ccccc4)c4ccccc4)C(C)=C1C3(C)C)[C@]1(OC(C)=O)CO[C@@H]1C[C@@H]2O [Paclitaxel, paclitaxel] | – | – | – | 1.9 ± 0.4 wt %
